Assay results taken from patent EP3498714B1 (priority 2017, dated 2019).
Converted amounts (≈) assume the structure as drawn.

Experiments:
[1] = test system: Escherichia coli DSM-1116; assay: Microbroth dilution assay (MIC); assay type: cell-based; details: DSM1116, 18-24 h, read-out: Minimum inhibitory concentrations (MIC)
Protocol: (§1) Bacterial strains. All microorganisms were obtained from the German Collection of Microorganisms and Cell Cultures (Deutsche Sammlung für Mikroorganismen und Zellkulturen, DSMZ) and the American Type Culture Collection (ATCC) or were part of our internal strain collection.
(§2) Antimicrobial Testing. Sorangicin A (1) and Neosorangicin A (2) were tested in microbroth dilution assays on a panel of Gram-positive and Gram-negative bacteria. Overnight cultures were prepared from cryopreserved cultures and were diluted to achieve a final inoculum of 10^4-10^5 cfu/mL. Serial dilutions of compounds in DMSO were prepared in sterile 96-well plates in the test medium (cation-adjusted Müller-Hinton broth; supplemented with 2% (w/v) NaCl for S. aureus and 2.5% (v/v) lysed horse blood for Enterococcus and Streptococcus spp.) The cell suspension was added and microorganisms were grown for 18-24 h at either 30°C or 37°C. Streptococci and enterococci were grown under microaerophilic conditions. Growth inhibition was assessed by visual inspection and given MIC values are the lowest concentration of antibiotic at which there was no visible growth. Table 2. Antimicrobial activity; Minimum inhibitory concentrations (MIC, µg/mL) of neosorangicin A (2), sorangicin A (1), and a reference antibiotic (RIF; Rifampicin) on selected Gram-positive (I) and Gram-negative (II) species.

[2] = test system: Pseudomonas aeruginosa DSM-1128; assay: Microbroth dilution assay (MIC); assay type: cell-based; details: DSM1128, 18-24 h, read-out: Minimum inhibitory concentrations (MIC)
Protocol: as §1, §2

[3] = test system: Acinetobacter baumannii DSM-30008; assay: Microbroth dilution assay (MIC); assay type: cell-based; details: DSM30008, 18-24 h, read-out: Minimum inhibitory concentrations (MIC)
Protocol: as §1, §2

[4] = test system: Staphylococcus aureus Newman; assay: Microbroth dilution assay (MIC); assay type: cell-based; details: 18-24 h, 2% NaCl, read-out: Minimum inhibitory concentrations (MIC)
Protocol: as §1, §2

[5] = test system: Streptococcus pneumoniae DSM-11865; assay: Microbroth dilution assay (MIC); assay type: cell-based; details: DSM11865, 18-24 h, 2.5% lysed horse blood, microaerophilic, read-out: Minimum inhibitory concentrations (MIC)
Protocol: as §1, §2

[6] = test system: Escherichia coli DSM-26863 (tolC3); assay: Microbroth dilution assay (MIC); assay type: cell-based; details: Escherichia coli, DSM26863, read-out: Minimum inhibitory concentrations (MIC)
Protocol: as §1, §2

[7] = test system: Staphylococcus aureus ATCC29213; assay: Microbroth dilution assay (MIC); assay type: cell-based; details: 18-24 h, 2% NaCl, read-out: Minimum inhibitory concentrations (MIC)
Protocol: as §1, §2

[8] = test system: Enterococcus faecalis DSM-20478; assay: Microbroth dilution assay (MIC); assay type: cell-based; details: DSM20478, 18-24 h, 2.5% lysed horse blood, microaerophilic, read-out: Minimum inhibitory concentrations (MIC)
Protocol: as §1, §2

[9] = test system: Enterococcus faecium DSM-20477; assay: Microbroth dilution assay (MIC); assay type: cell-based; details: DSM20477, 18-24 h, 2.5% lysed horse blood, microaerophilic, read-out: Minimum inhibitory concentrations (MIC)
Protocol: as §1, §2

[10] = test system: Staphylococcus aureus Newman (Rif^R); assay: Microbroth dilution assay (MIC); assay type: cell-based; details: Staphylococcus aureus, NEWMAN, read-out: Minimum inhibitory concentrations (MIC)
Protocol: as §1, §2

[11] = test system: Klebsiella pneumoniae DSM-30104; assay: Microbroth dilution assay (MIC); assay type: cell-based; details: DSM30104, 18-24 h, read-out: Minimum inhibitory concentrations (MIC)
Protocol: as §1, §2

[12] = test system: Staphylococcus aureus DSM-346; assay: Microbroth dilution assay (MIC); assay type: cell-based; details: DSM346, 18-24 h, 2% NaCl, read-out: Minimum inhibitory concentrations (MIC)
Protocol: as §1, §2

[13] = test system: Escherichia coli (TolC-deficient); assay: Microbroth dilution assay (MIC); assay type: cell-based; details: Escherichia coli, read-out: Minimum inhibitory concentrations (MIC)
Protocol: as §1, §2

[14] = test system: Escherichia coli DSM-1116 + 3 µg/ml PMBN; assay: Microbroth dilution assay (MIC) with PMBN; assay type: cell-based; details: DSM1116, 18-24 h, read-out: Minimum inhibitory concentrations (MIC)
Protocol: as §1, §2
However, similar to 1, neosorangicin A (2) was not active on a rifampicin-resistant (Rif^R) derivative of S. aureus Newman, which confirms overlapping binding sites on RNA polymerase. […] In addition, the MIC values of 2 on efflux-deficient E. coli mutants (TolC as part of the AcrAB multidrug efflux system) were decreased.

S. aureus Newman = assay: MIC in RPMI-1640 macrophage growth medium; assay type: cell-based; details: Staphylococcus aureus, NEWMAN; RPMI-1640 macrophage growth medium supplemented with 0.5% (v/v) FBS
Protocol: Determination of intracellular efficiency. For infection experiments, cells were seeded in 24-well plates in RPMI-1640 supplemented with 10% FBS and 150 nM phorbol 12-myristate 13-acetate (PMA) at a concentration of 10^5 cells/well. After 2 d, the cells were differentiated into macrophages and reached a cell density of ca. 2 x 10^5 cells/well. The medium was then removed and the cells were washed twice with PBS. An inoculum of ca. 2×10^6 CFU (colony-forming units) of S. aureus Newman in log phase (multiplicity of infection, MOI=10) was added to each well in RPMI/10% FBS and the plates were incubated at 37 °C and 5% CO2 in a water vapor-saturated atmosphere. The inoculum was checked by serial dilution and plating on CASO agar (1.5% peptone casein, 0.5% peptone soymeal, 0.5% NaCl, 1.5% agar, pH 7.3). After 2 h, the infected cells were washed three times with PBS (phosphate-buffered saline; pH 7.4) and incubated with fresh growth medium containing 10 µg/mL lysostaphin (≥500 U/mg) for 30 min in order to kill remaining extracellular bacteria. The initial load (Control t0) was checked by recovery of intracellular bacteria and plating on CASO agar. After three times washing with PBS the test compounds were added in RPMI-1640/0.5% FBS at the given concentrations for 18 h. After repeated washing with PBS the intracellular bacteria were recovered by adding ice-cooled water for 10 min and the bacterial suspensions were further diluted in 0.9% (w/v) NaCl prior to plating on CASO agar. The plates were incubated overnight at 37 °C and colonies were counted. The MIC values on S. aureus Newman in RPMI-1640 macrophage growth medium supplemented with 0.5% (v/v) fetal bovine serum (FBS) for neosorangicin A (2), sorangicin A (1) and the reference antibiotic rifampicin (RIF) were 0.01, 0.13 and 0.01 µg/mL, respectively. Human THP-1 macrophages were infected with S. aureus at an MOI (multiplicity of infection) of 10. After killing of extracellular bacteria, the cells were treated for 18 h with the antibiotics at their respective 1x and 8x MIC. […]

S. aureus RNA polymerase = molecular target: T1, S. aureus RNA polymerase (Staphylococcus aureus, UniProt P47768); assay: RNA polymerase inhibition assay (ProFoldin kit); assay type: biochemical
T1 construct: purchased ProFoldin, MA
Protocol: The inhibition of S. aureus RNA polymerase by Sorangicin derivatives 1 and 2 was tested in vitro (bacterial RNA Polymerase Assay Kit; ProFoldin, MA). The samples were prepared and analyzed according to the manufacturer's protocol with slight modifications. In brief, serial dilutions (concentration range: 0.1 nM - 10 µM) of rifampicin, sorangicin A (1) and neosorangicin A (2) in black 384-well plates (low-volume, non-binding surface; Corning) were incubated for 1 h at room temperature with 25 nM RNA polymerase from S. aureus in assay buffer (42.5 mM HEPES, 42.5 mM NH4Cl, 2 mM DTT, 4 mM MgCl2, 0.005 % (v/v) Tween-20; pH 7.5) containing 0.5 mM NTPs and 1x DNA template. The reaction was monitored by incubation with a fluorescent probe for 5 min and measurement of the fluorescence intensity at 535 nm after excitation at 485 nm (Tecan Infinite M200PRO). Half-inhibitory concentrations (IC50) were determined in two independent experiments by sigmoidal curve fitting and given values are IC50 ± SD.

T1 sequence (P47768 whole entry): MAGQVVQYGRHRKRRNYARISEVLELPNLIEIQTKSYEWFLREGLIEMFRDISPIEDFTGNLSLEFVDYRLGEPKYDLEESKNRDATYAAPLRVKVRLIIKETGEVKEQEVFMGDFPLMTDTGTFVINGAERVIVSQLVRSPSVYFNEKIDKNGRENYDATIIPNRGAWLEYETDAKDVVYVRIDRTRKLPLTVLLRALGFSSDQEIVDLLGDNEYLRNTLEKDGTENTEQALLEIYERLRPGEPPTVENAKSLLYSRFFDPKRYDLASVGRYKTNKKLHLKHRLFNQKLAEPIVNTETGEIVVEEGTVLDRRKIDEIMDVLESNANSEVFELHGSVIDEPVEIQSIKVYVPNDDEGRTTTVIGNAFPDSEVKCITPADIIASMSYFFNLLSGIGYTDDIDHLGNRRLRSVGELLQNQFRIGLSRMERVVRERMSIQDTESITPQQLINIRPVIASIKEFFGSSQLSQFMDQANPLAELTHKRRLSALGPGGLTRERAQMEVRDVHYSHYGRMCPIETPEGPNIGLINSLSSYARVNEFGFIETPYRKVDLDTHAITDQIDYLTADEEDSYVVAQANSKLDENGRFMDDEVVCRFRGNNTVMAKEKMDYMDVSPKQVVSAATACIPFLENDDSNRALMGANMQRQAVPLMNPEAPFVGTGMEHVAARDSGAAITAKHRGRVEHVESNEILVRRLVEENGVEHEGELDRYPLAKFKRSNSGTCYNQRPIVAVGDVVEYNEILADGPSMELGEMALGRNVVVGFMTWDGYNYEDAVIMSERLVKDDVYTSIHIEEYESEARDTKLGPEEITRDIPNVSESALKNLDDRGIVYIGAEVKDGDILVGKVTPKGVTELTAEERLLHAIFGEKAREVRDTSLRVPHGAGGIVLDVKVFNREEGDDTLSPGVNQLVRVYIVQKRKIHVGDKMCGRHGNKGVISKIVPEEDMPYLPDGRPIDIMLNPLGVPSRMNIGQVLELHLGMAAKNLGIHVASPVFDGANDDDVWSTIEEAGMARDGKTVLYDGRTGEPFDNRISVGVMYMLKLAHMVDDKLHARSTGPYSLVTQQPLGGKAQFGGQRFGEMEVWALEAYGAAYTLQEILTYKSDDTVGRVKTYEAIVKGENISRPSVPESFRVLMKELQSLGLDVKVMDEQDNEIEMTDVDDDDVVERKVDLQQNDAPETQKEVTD

For `CO[C@H]1/C=C/O[C@@]2(C)Oc3c(C)c(O)c4c(O)c(c(/C=N/N5CCN(C)CC5)c(O)c4c3C2=O)NC(=O)/C(C)=C\C=C\[C@H](C)[C@H](O)[C@@H](C)[C@@H](O)[C@@H](C)[C@H](OC(C)=O)[C@@H]1C` [RIF, Rifampicin], the MIC [1] was 6.4 µg/mL (≈ 7.78 µM), the MIC [2] was over 6.4 µg/mL and the MIC [3] was 1.6 µg/mL (≈ 1.94 µM). The MIC [4] was 0.01 µg/mL (≈ 0.0122 µM), the MIC [5] was 0.1 µg/mL (≈ 0.122 µM) and the MIC [6] was 6.4 µg/mL (≈ 7.78 µM). For the same compound, the MIC [7] was 0.01 µg/mL (≈ 0.0122 µM), the MIC [8] was 6.4 µg/mL (≈ 7.78 µM) and the MIC [9] was over 6.4 µg/mL. For the same compound, the MIC [10] was over 6.4 µg/mL, the MIC [11] was 6.4 µg/mL (≈ 7.78 µM) and the MIC [12] was 0.006 µg/mL (≈ 0.00729 µM). For the same compound, the MIC [13] was 6.4 µg/mL (≈ 7.78 µM), the MIC [14] was 0.4 µg/mL (≈ 0.486 µM) and the MIC (S. aureus Newman) was 0.01 µg/mL (≈ 0.0122 µM). The IC50 (S. aureus RNA polymerase) was 0.03 ± 0.02 µM.
